The values below come from PubChem BioAssay AID1117319 (Southern Research Institute, 2015).

Where “and” joins values, the source holds several entries; their conditions need not be identical. Equal entries are not always repeated. Records with an inconclusive call do not appear.

The IC50 is the concentration at which inhibition is half-maximal.

The experiment has as its target Virion infectivity factor (Human immunodeficiency virus type 1 group M subtype B (isolate BH10)) + Virion infectivity factor (Human immunodeficiency virus type 1 group M subtype B (isolate BRU/LAI)) + Virion infectivity factor (Human immunodeficiency virus type 1 group M subtype B (isolate PCV12)) + Virion infectivity factor (Human immunodeficiency virus type 1 group M subtype B (isolate HXB2)) + DNA dC->dU-editing enzyme APOBEC-3G (Homo sapiens) (UniProt P69720+P69721+P69722+P69723+Q9HC16). Put plainly: inhibitors of Vif binding to APOBEC3G peptide, primary screen, biochemical, TR-FRET, GST-Vif 1-94, biotin-A3G peptide, dose response retest (AID 1117319).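 Also: Vif residues 1-94 fused to GST binding biotinylated APOBEC3G peptide 110-148.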 On the technique in general: Time-resolved FRET reads energy transfer from a long-lived donor to a nearby acceptor.
For `CCCCn1c(O)c(C(CC)=NCCN2CCCCC2)c(=O)[nH]c1=O`, the IC50 is 4.09 µM.

Regarding `CCc1noc(N)c1C(=O)Nc1ccc(F)c(Cl)c1`, the half-maximal inhibitory concentration (IC50) was 74.6 µM.

With `CC1=CC(C)(C)Nc2ccc(OC(=O)CN3C(=O)c4cccc5cccc(c45)C3=O)cc21`, the IC50 is 1.99 µM.

Consider `Cc1ccc(S(=O)(=O)OCC(=O)Nc2ccc(C(=O)O)c(O)c2)cc1`, for which the IC50 was 64.1 µM. In the case of `CCOC(=O)COc1nc(-c2ccco2)cc(-c2ccco2)c1C#N` it was 5.83 µM. Take `CC(C)(Oc1ccc(Cl)cc1)C(=O)NCc1ccco1`: the IC50 is 43.1 µM.

On to `O=[N+]([O-])c1ccc(/C=N/Nc2nc(N3CCCC3)nc(N3CCCC3)n2)o1`, for which the 50% inhibitory concentration (IC50) is 54.2 µM. In the case of `Cc1ccc(/C=C/C2=Cc3c(sc(NC(=O)CSc4n[nH]c(N)n4)c3C#N)C(C)(C)C2)o1` it was 0.8 µM; in that of `CC(C)NC(=O)c1cc(-c2ccco2)nn1-c1ccc(Cl)cc1`, 13.5 µM; in that of `CCCCOc1ccc(C(=O)NCC(=O)NCC(=O)OCC)cc1`, 76.9 µM. The same measure for `C=C(C)C(=O)Nc1cccc(C2=NOC3(C2)C[C@H](C(N)=O)N(C(=O)C(c2ccccc2)c2ccccc2)C3)c1` (some centres not stated): 2.41 µM; for `Oc1cc2c(cc1O)C1c3ccc(O)c(O)c3OCC1(O)C2` (configuration not stated): 0.46 µM; for `Cc1ccc(N(CC(=O)NCCSCc2ccco2)S(=O)(=O)c2ccc(F)cc2)cc1`: 10.9 µM. The same measure for `COc1ccc(/C=N/NC(=O)CNc2n[nH]c(=O)[nH]c2=O)cc1OC`: 42.6 µM; for `O=C(Nc1cc(Cl)cc(Cl)c1)c1coc(=O)c(Br)c1`: 19.1 µM; for `COc1ccc(Cl)cc1NC(=O)CCS(=O)(=O)c1ccc(Br)cc1`: 8.09 µM. For the compound `O=C(NC1CCCC1)c1ccc2nc(-c3ccco3)c(-c3ccco3)nc2c1`, the half-maximal inhibitory concentration (IC50) was 0.3 µM. Consider `O=c1cc2c(=O)oc3cc(O)c(O)oc3c2c(O)c1O`, for which the half-maximal inhibitory concentration (IC50) was 1.68 µM. The same measure for `Cc1ccc[n+](-c2[nH]c(=O)sc2/C=N/NC(=O)c2ccccc2[O-])c1`: 51.4 µM. In the case of `CCSC1=C(C#N)C(c2cccs2)C(C(=O)OC)=C(C)N1` (configuration not stated), the IC50 is 75.5 µM. Take `O=C1CC(c2ccco2)CC(O)=C1C=Nc1cc(Cl)cc(Cl)c1` (configuration not stated): the half-inhibitory concentration (IC50) was 4.12 µM. The same measure for `Cc1cccn2c(=O)c3cc(C(=O)NCc4ccco4)c(=N)n(CCc4ccccc4)c3nc12`: 34 µM.

For `O=S(=O)(c1ccc2nc(-c3ccco3)c(-c3ccco3)nc2c1)N1CCOCC1`, the IC50 was 6.38 µM and 3.81 µM.

Take `COc1cc(-c2nnc(SCc3cc(=O)oc4cc(O)c(O)cc34)o2)cc(OC)c1OC`: the half-inhibitory concentration (IC50) is 8.36 µM. Regarding `C(=C\c1ccco1)/c1ccc2ccccc2n1`, the IC50 was 5.09 µM. In the case of `O=C(Nc1ccc(F)cc1F)c1noc2c1CCC2` it was 12.8 µM; in that of `Cc1nccn1CC(=O)N/N=C/c1ccc(O)c(O)c1`, 23.2 µM; in that of `CSc1nc(NCCOCCO)c2sc3nc(-c4ccco4)c4c(c3c2n1)CCC4`, 1.41 µM. For `O=C(CCc1ccc(S(=O)(=O)NCCc2ccccc2)cc1)Nc1ccc2c(c1)OCO2`, the half-inhibitory concentration (IC50) was 43.5 µM.

`CC(=O)c1ccc(NC(=O)c2ccc3nc(-c4ccco4)c(-c4ccco4)nc3c2)cc1`: the IC50 is 1.38 µM.

Consider `CC(=O)N1CCN(c2ccc(NCc3ccc(C)s3)cc2)CC1`, for which the half-maximal inhibitory concentration (IC50) is 3.13 µM. Turning to `O=C(O)C1Nc2c(Cl)cc(Cl)c(Cl)c2C2C=CCC12` (configuration not stated), the half-inhibitory concentration (IC50) was 30 µM.

In the case of `Cc1cc(C)c(C(=O)/C=C/c2ccco2)c(=O)[nH]1`, the IC50 was 8.81 µM. The same measure for `Oc1ccc(NCc2cccc(OCc3ccc(F)cc3)c2)cc1`: 2.37 µM. The same measure for `Oc1ccc(N=Cc2ccc(-c3cccs3)s2)cc1`: 0.92 µM.

Turning to `Cc1cc(SCC2=NNC(=O)C2)c(Cl)cc1Cl`, the IC50 is 63.2 µM. The same measure for `O=C(COC(=O)c1ccccc1)Nc1ncc([N+](=O)[O-])s1`: 6.6 µM. In the case of `C=CCN=c1scc(C)n1/N=C/c1ccc(O)c(O)c1` it was 15.4 µM. As to `CC(=C\c1ccco1)/C=C1/SC(=S)N(CC(=O)O)C1=O`, the IC50 is 14.7 µM. The same measure for `CCc1cc(=O)oc2cc(C)c(CN3CCCC3)c(O)c12`: 4.07 µM; for `Nc1ccc(Oc2ncccn2)cc1`: 24.4 µM; for `CC1=C(SCc2ccccc2)C(=O)c2ccccc2C1=O`: 58.1 µM. Take `Nc1ccc(N2CCCCCC2)cc1`: the IC50 is 1.06 µM. In the case of `COc1cccc(N2C(=O)NC(=O)/C(=C/c3ccc([N+](=O)[O-])s3)C2=O)c1` it was 7.18 µM.

As for `CCn1cc(CNC(=O)c2ccc(Cl)c([N+](=O)[O-])c2)c(C)n1`, the IC50 was 15.7 µM. The same measure for `COc1ccc(NC(=O)/C(C#N)=C/c2ccc(Br)o2)cc1`: 14.7 µM. Take `Cc1ccn2cc(-c3nonc3C)cc2c1`: the IC50 is 22.5 µM. Regarding `CS(=O)(=O)N1CCCC(C(=O)NCCCN2CCC(Cc3ccccc3)CC2)C1` (configuration not stated), the half-inhibitory concentration (IC50) was 84.4 µM.

Take `CCN1CCc2c(C#N)c(NCc3ccccc3)nc(N(CC)CC)c2C1`: the IC50 is 62.8 µM. The same measure for `O=C1c2cccnc2C(Nc2ccccc2)N1Cc1ccco1` (configuration not stated): 22.9 µM; for `O=C1OC(c2ccc(F)cc2)=C/C1=C\c1ccc([N+](=O)[O-])o1`: 8.61 µM.

Turning to `CCC1=NN2C(=N)/C(=C\c3ccc(SCc4ccco4)o3)C(=O)N=C2S1`, the 50% inhibitory concentration (IC50) is 10.4 µM. The same measure for `Cc1ccc(NC(=O)CN(C)C(=O)c2cccc(-n3cccc3)c2)cc1`: 4.56 µM; for `O=C1NC(=O)N(c2ccc(Cl)cc2)C(=O)/C1=C\c1ccc(Sc2nc3ccccc3[nH]2)o1`: 11.7 µM; for `CCOC(=O)C(=O)NCc1ccc(/C=C2/N=C(C)C(C(=O)OCC)=C2O)o1`: 6.18 µM. The same measure for `COc1ccc(/C=C(\NC(=O)c2ccc(OCC(C)C)cc2)C(=O)OCc2ccco2)cc1`: 32.7 µM. In the case of `CN(C)c1ccc(N/C=C/C(=O)c2ccco2)cc1` it was 30.8 µM. Turning to `COc1ccc(OC)c(C2C(C(=O)Nc3ccc(F)cc3)=C(C)Nc3nc(CCCO)nn32)c1` (configuration not stated), the half-inhibitory concentration (IC50) was 54.6 µM.

For `CCCCn1cnc2cc(NCc3ccncc3)ccc21`, the IC50 is 35.3 µM.

`O=C(Nc1ccccc1-c1nnn(CC(=O)N2CCc3ccccc3C2)n1)C1CCC1`: the 50% inhibitory concentration (IC50) was 91 µM. The same measure for `CCOc1ccc(-c2nnn(CC(=O)c3ccc4c(c3)OCCO4)n2)cc1OCC`: 29.1 µM. The same measure for `Cc1cc(S(=O)(=O)N(Cc2ccccn2)Cc2ccco2)ccc1-n1cnnn1`: 83.6 µM; for `O=C(Nc1cccc(C(F)(F)F)c1)c1ccc2nc(-c3ccco3)c(-c3ccco3)nc2c1`: 0.69 µM. The same measure for `CC1=C(C#N)C(=O)N(C2CCS(=O)(=O)C2)C(=O)/C1=C\c1ccc(C)o1` (configuration not stated): 1.42 µM. With `CCCCC1=CC2=CC(=O)C(C)(OC(=O)c3cnc4ccccc4n3)C(=O)C2=CO1` (configuration not stated), the IC50 is 12.4 µM. For `Fc1cccc(-c2cc3nc4c(c(NCc5ccco5)n3n2)CCCC4)c1`, the concentration for half-maximal inhibition (IC50) was 50.8 µM. In the case of `COc1ccc(O)c(N)c1` it was 0.93 µM. As to `COc1ccc(-c2nc3oc4cc(OC)ccc4c(=O)c3c(=O)n2Cc2ccco2)cc1`, the IC50 is 98.7 µM. In the case of `CN1CCN(S(=O)(=O)c2ccc(NC(=S)NC(=O)c3ccc(Cl)cc3)cc2)CC1` it was 80.7 µM; in that of `O=C1C=Cc2ccccc2C1=O`, 10.6 µM. `O=C1/C(=C\c2ccco2)NC(=S)N1c1ccccc1`: the half-inhibitory concentration (IC50) was 16.4 µM. Take `COc1ccc(CCNC(=O)CN2CCCc3ccccc32)cc1OC`: the IC50 was 91 µM.
